Data on 21 molecules can be found in article PMC10740061 (Food Chemistry: X, 2023).

The subject of this series is Caco-2 monolayer. The experiment in a line: Caco-2 monolayer transmembrane transport, apical to basolateral. The class given is in vitro ADME, human. To be noted: for PappAtoB: 40 µM flavonoid, 6 h, A to B, mean ± SD (n = 3); for apparent permeability coefficient (in words): comparison among the dietary flavonoids, Table 2. On the technique in general: Passage across Caco-2 layers is used to estimate intestinal permeability.

Setting [1] is: RD (rice flour digested products) 400 µg/mL.
Setting [2] is: WD (wheat flour digested products) 400 µg/mL.

Marks after values point to notes of the source that are not given here.

In the case of `O=c1c(O)c(-c2ccc(O)c(O)c2)oc2cc(O)cc(O)c12` [Quercetin], the PappAtoB under setting [1] is given as 6.54 ± 0.03^a × 10^-6 cm/s. Also, the “Increase in PappAtoB” value is listed as −0.29 (RD vs no substrate) and 0.18 (WD vs no substrate).

Consider `O=C1c2c(O)cc(O)cc2OC(c2ccc(O)c(O)c2)C1O` (stereo not shown) [Taxifolin], for which the “apparent permeability coefficient (in words)” value is recorded as “notably higher apparent permeability coefficients”. The PappAtoB under setting [1] is reported as 15.66 ± 0.09^a × 10^-6 cm/s. For the same molecule, the “Increase in PappAtoB” value (RD vs no substrate) is on record as −0.37. Moreover, the PappAtoB under setting [2] was 17.71 ± 0.43^b × 10^-6 cm/s. For the same molecule, the “Increase in PappAtoB” value (WD vs no substrate) is reported as −0.29.

Turning to `O=c1c(O)c(-c2ccc(O)cc2)oc2cc(O[C@@H]3O[C@H](CO)[C@@H](O)[C@H](O)[C@H]3O)cc(O)c12` [Kaempferol-7-O-β-glucoside], the “apparent permeability coefficient (in words)” value is recorded as “comparatively poor”. Moreover, the PappAtoB (No substrate) was 0.64 ± 0.05^a × 10^-6 cm/s. Besides, the PappAtoB under setting [1] is 1.26 ± 0.02^b × 10^-6 cm/s. The “Increase in PappAtoB” value (RD vs no substrate) is on record as 0.96. The PappAtoB under setting [2] is 3.67 ± 0.15^c × 10^-6 cm/s. Moreover, the “Increase in PappAtoB” value (WD vs no substrate) was 4.71.

For the molecule `O=c1c(O)c(-c2cc(O)c(O)c(O)c2)oc2cc(O)cc(O)c12` [Myricetin], the PappAtoB reads like this: under setting [1], 9.07 ± 0.01^b × 10^-6 cm/s; under setting [2], 17.79 ± 0.03^c × 10^-6 cm/s. Further, the “Increase in PappAtoB” value runs as follows: (RD vs no substrate) 0.63; (WD vs no substrate) 2.21.

In the case of `O=c1cc(-c2ccc(O)cc2)oc2cc(O[C@@H]3O[C@H](CO)[C@@H](O)[C@H](O)[C@H]3O)cc(O)c12` [Apigenin-7-O-glucoside], the PappAtoB by setting is: under setting [1], 6.37 ± 0.02^a × 10^-6 cm/s; under setting [2], 11.24 ± 0.64^b × 10^-6 cm/s. In addition, the “Increase in PappAtoB” value is 0.11 (RD vs no substrate) and 0.95 (WD vs no substrate).

With `O=c1c(-c2ccc(O)cc2)coc2cc(O)cc(O)c12` [Genistein], the PappAtoB runs as follows: under setting [1], 14.45 ± 0.09^b × 10^-6 cm/s; under setting [2], 22.89 ± 0.09^c × 10^-6 cm/s. Also, the “Increase in PappAtoB” value is 0.21 (RD vs no substrate) and 0.92 (WD vs no substrate).

As to `Oc1cc(O)c2c(c1)O[C@H](c1ccc(O)c(O)c1)[C@@H](O)C2` [(+)-Catechin], the “apparent permeability coefficient (in words)” value is listed as “notably higher apparent permeability coefficients”. The PappAtoB (No substrate) is recorded as 11.22 ± 0.06^a × 10^-6 cm/s. Also, the PappAtoB under setting [1] was 18.75 ± 0.09^b × 10^-6 cm/s. The “Increase in PappAtoB” value (RD vs no substrate) is 0.67. Also, the “Increase in PappAtoB” value (WD vs no substrate) is reported as −0.04.

For `O=C1c2c(O)cc(O)cc2O[C@H](c2cc(O)c(O)c(O)c2)[C@H]1O` [Dihydromyricetin], the “apparent permeability coefficient (in words)” value is reported as “notably higher apparent permeability coefficients”. Further, the PappAtoB under setting [1] is 16.38 ± 0.03^b × 10^-6 cm/s. The “Increase in PappAtoB” value (RD vs no substrate) was −0.05. Besides, the PappAtoB under setting [2] was 14.82 ± 0.15^a × 10^-6 cm/s. Further, for the setting “WD vs no substrate”, the “Increase in PappAtoB” value is reported as −0.14.

With `OC[C@H]1O[C@@H](Oc2cc3c(O)cc(O)cc3[o+]c2-c2ccc(O)c(O)c2)[C@H](O)[C@@H](O)[C@@H]1O` [Cyanidin-3-O-glucoside], the PappAtoB is 7.96 ± 0.08^a × 10^-6 cm/s (No substrate), 7.85 ± 0.07^a × 10^-6 cm/s under setting [1] and 7.97 ± 0.06^a × 10^-6 cm/s under setting [2]. For the same molecule, the “Increase in PappAtoB” value (RD vs no substrate) is given as −0.01 and the “Increase in PappAtoB” value (WD vs no substrate) is reported as 0.00.

On to `C[C@@H]1O[C@@H](Oc2c(-c3ccc(O)c(O)c3)oc3cc(O)cc(O)c3c2=O)[C@H](O)[C@H](O)[C@H]1O` [Quercitrin], for which the PappAtoB is, setting by setting: under setting [1], 1.47 ± 0.05^a × 10^-6 cm/s; under setting [2], 9.61 ± 0.28^c × 10^-6 cm/s. For the same molecule, the “Increase in PappAtoB” value runs as follows: (RD vs no substrate) −0.73; (WD vs no substrate) 0.72.

For the molecule `O=c1cc(-c2ccc(O)cc2)oc2c([C@@H]3O[C@H](CO)[C@@H](O)[C@H](O)[C@H]3O)c(O)cc(O)c12` [Vitexin], the “apparent permeability coefficient (in words)” value was “highest apparent permeability coefficient”. Also, the PappAtoB under setting [1] is reported as 25.87 ± 0.04^b × 10^-6 cm/s. For the same molecule, for the setting “RD vs no substrate”, the “Increase in PappAtoB” value was −0.09. Besides, under setting [2], the PappAtoB was 15.54 ± 0.46^a × 10^-6 cm/s. Also, the “Increase in PappAtoB” value (WD vs no substrate) is recorded as −0.46.

As for `O=c1cc(-c2ccccc2)oc2cc(O)c(O)c(O)c12` [Baicalein], the “apparent permeability coefficient (in words)” value was “comparatively poor”. For the same molecule, the PappAtoB under setting [1] is recorded as 2.28 ± 0.01^a × 10^-6 cm/s. The “change of apparent permeability coefficient (in words)” value (“change” below) (RD group vs no substrate) is “decrease in the apparent permeability coefficient”. Under “RD vs no substrate”, the “Increase in PappAtoB” value is −0.21. The PappAtoB under setting [2] is reported as 3.79 ± 0.10^c × 10^-6 cm/s. Also, where the note is “WD group vs no substrate”, the “change” value is listed as “increase”. In addition, the “Increase in PappAtoB” value (WD vs no substrate) is 0.31.

For the molecule `Oc1cc(O)c2c(c1)O[C@H](c1ccc(O)c(O)c1)[C@H](O)C2` [(-)-Epicatechin], the “apparent permeability coefficient (in words)” value is given as “notably higher apparent permeability coefficients”. Under setting [1], the PappAtoB is 37.30 ± 0.04^c × 10^-6 cm/s. Moreover, the “Increase in PappAtoB” value (RD vs no substrate) came out at 0.62. Also, the PappAtoB under setting [2] is 27.24 ± 0.45^b × 10^-6 cm/s. Besides, the “Increase in PappAtoB” value (WD vs no substrate) came out at 0.18.

`COc1cc(-c2oc3cc(O)cc(O)c3c(=O)c2O[C@@H]2O[C@H](CO[C@@H]3O[C@@H](C)[C@H](O)[C@@H](O)[C@H]3O)[C@@H](O)[C@H](O)[C@H]2O)ccc1O` [Isorhamnetin-3-O-rutinoside]: the PappAtoB (No substrate) is recorded as 7.78 ± 0.05^b × 10^-6 cm/s, the PappAtoB under setting [1] is on record as 5.40 ± 0.09^a × 10^-6 cm/s and the PappAtoB under setting [2] is recorded as 11.68 ± 0.07^c × 10^-6 cm/s. In addition, the “Increase in PappAtoB” value (RD vs no substrate) is listed as −0.31 and the “Increase in PappAtoB” value (WD vs no substrate) is on record as 0.50.

As for `C[C@@H]1O[C@@H](O[C@H]2[C@H](Oc3cc(O)c4c(c3)O[C@H](c3ccc(O)cc3)CC4=O)O[C@H](CO)[C@@H](O)[C@@H]2O)[C@H](O)[C@H](O)[C@H]1O` [Naringin], the PappAtoB was 1.80 ± 0.01^b × 10^-6 cm/s under setting [1] and 2.38 ± 0.09^c × 10^-6 cm/s under setting [2]. For the same molecule, the “Increase in PappAtoB” value is, setting by setting: (RD vs no substrate) 0.34; (WD vs no substrate) 0.77.

As for `O=C1C[C@@H](c2ccc(O)cc2)Oc2cc(O)cc(O)c21` [Naringenin], the “apparent permeability coefficient (in words)” value is “notably higher apparent permeability coefficients”. Further, under setting [1], the PappAtoB is listed as 5.43 ± 0.06^a × 10^-6 cm/s. Further, under “RD vs no substrate”, the “Increase in PappAtoB” value was −0.57. Also, the PappAtoB under setting [2] is 11.15 ± 1.54^b × 10^-6 cm/s. The “Increase in PappAtoB” value (WD vs no substrate) is −0.12.

For the molecule `O=c1c(O)c(-c2ccccc2)oc2cc(O)cc(O)c12` [Galangin], the PappAtoB is, setting by setting: under setting [1], 8.76 ± 0.01^b × 10^-6 cm/s; under setting [2], 12.01 ± 0.49^c × 10^-6 cm/s. Moreover, the “Increase in PappAtoB” value is, setting by setting: (RD vs no substrate) 0.28; (WD vs no substrate) 0.75.

As for `COc1ccc([C@@H]2CC(=O)c3c(O)cc(O)cc3O2)cc1O` [Hesperetin], the PappAtoB is, setting by setting: under setting [1], 1.98 ± 0.02^a × 10^-6 cm/s; under setting [2], 12.18 ± 0.53^c × 10^-6 cm/s. Also, the “change” value (RD group vs no substrate) is given as “decrease in permeability”. The “Increase in PappAtoB” value reads like this: (RD vs no substrate) −0.73; (WD vs no substrate) 0.67.

With `COc1ccc(-c2coc3cc(O)ccc3c2=O)cc1` [Formononetin], the “apparent permeability coefficient (in words)” value is recorded as “notably higher apparent permeability coefficients”. The PappAtoB under setting [1] is recorded as 12.01 ± 0.01^a × 10^-6 cm/s. In addition, the “change” value (RD group vs no substrate) is “decrease in permeability”. Besides, under “RD vs no substrate”, the “Increase in PappAtoB” value is recorded as −0.49. The PappAtoB under setting [2] is 22.68 ± 0.95^b × 10^-6 cm/s. Under “WD vs no substrate”, the “Increase in PappAtoB” value was −0.05.

`O=c1cc(-c2ccc(O)cc2)oc2cc(O)cc(O)c12` [Apigenin]: the “apparent permeability coefficient (in words)” value is “comparatively poor”. In addition, under setting [1], the PappAtoB is 3.13 ± 0.01^b × 10^-6 cm/s. Besides, for the setting “RD vs no substrate”, the “Increase in PappAtoB” value was found to be 0.90. Moreover, the PappAtoB under setting [2] is reported as 4.18 ± 0.06^c × 10^-6 cm/s. For the same molecule, under “WD vs no substrate”, the “Increase in PappAtoB” value stood at 1.54.

Consider `COc1cc(-c2oc3cc(O)cc(O)c3c(=O)c2O)ccc1O` [Isorhamnetin], for which the PappAtoB runs as follows: under setting [1], 6.64 ± 0.03^a × 10^-6 cm/s; under setting [2], 11.42 ± 0.91^c × 10^-6 cm/s. Also, the “Increase in PappAtoB” value is on record as −0.29 (RD vs no substrate) and 0.23 (WD vs no substrate).
